According to paper PMC7252524 (Journal of medicinal chemistry, 2019):

Test: Mouse PK analysis, large intestine
Type: in vivo

| Structure (SMILES) | Large Intestinal PK AUClast (ip, 10 mg/kg) | Large Intestinal PK AUClast (iv, 10 mg/kg) | Large Intestinal PK AUClast (iv, 5 mg/kg) | Large Intestinal PK AUClast (po, 20 mg/kg) |
| --- | --- | --- | --- | --- |
| COc1ccc(S(=O)(=O)N2CCC(N3CCC(C)CC3)CC2)cc1 [compound 6, 1’-((4-Methoxyphenyl)sulfonyl)-4-methyl-1,4’-bipiperidine] | 737,709 ng·min/g | – | – | – |
| CC1CCN(C2CCN(S(=O)(=O)c3ccc(Cl)cc3)CC2)CC1 [compound 16, 1’-((4-Chlorophenyl)sulfonyl)-4-methyl-1,4’-bipiperidine] | – | 262,874 ng·min/g | – | – |
| CC1CCN(C2CCN(S(=O)(=O)c3ccc(OC(F)F)cc3)CC2)CC1 [compound 22, 1’-((4-(Difluoromethoxy)phenyl)sulfonyl)-4-methyl-1,4’-bipiperidine] | 790,425 ng·min/g | – | 511,878 ng·min/g | 890,969 ng·min/g |
| C#CCC1CCN(C2CCN(S(=O)(=O)c3ccc(Br)cc3)CC2)CC1 [compound 92, 1’-((4-Bromophenyl)sulfonyl)-4-(prop-2-yn-1-yl)-1,4’-bipiperidine] | 633,289 ng·min/g | 559,037 ng·min/g | – | – |
